Columns and labels:
Topoisomerase I = molecular target: T1, Topoisomerase I (Homo sapiens, UniProt P11387); experiment: Topo I cleavage assay; type: biochemical; conditions: for TopI Cleave: unit not given, compound at 1, 10, 25 and 50 μM in protocol
T1 sequence (P11387 1-765): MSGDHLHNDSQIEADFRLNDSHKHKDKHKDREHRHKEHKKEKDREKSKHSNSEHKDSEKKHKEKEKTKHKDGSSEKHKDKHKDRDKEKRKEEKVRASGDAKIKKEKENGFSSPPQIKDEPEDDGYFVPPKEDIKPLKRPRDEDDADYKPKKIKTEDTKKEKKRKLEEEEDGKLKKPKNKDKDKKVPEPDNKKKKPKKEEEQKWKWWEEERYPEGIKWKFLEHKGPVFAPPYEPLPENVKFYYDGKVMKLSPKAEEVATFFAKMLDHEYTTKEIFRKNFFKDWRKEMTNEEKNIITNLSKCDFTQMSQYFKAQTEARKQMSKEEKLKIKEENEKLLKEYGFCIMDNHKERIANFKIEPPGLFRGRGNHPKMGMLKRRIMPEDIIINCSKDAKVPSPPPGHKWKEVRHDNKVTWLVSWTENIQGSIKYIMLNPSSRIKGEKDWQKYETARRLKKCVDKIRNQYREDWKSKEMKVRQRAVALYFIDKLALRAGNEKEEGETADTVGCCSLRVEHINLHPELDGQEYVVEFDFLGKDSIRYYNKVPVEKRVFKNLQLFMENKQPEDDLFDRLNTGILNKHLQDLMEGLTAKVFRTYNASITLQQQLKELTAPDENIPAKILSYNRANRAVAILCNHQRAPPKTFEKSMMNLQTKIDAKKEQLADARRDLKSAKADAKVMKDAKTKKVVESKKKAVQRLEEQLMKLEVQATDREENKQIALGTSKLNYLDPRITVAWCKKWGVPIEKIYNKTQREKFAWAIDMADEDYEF

Topoisomerase IIα = Topoisomerase IIα (Homo sapiens, UniProt P11388); experiment: Topo II decatenation assay; type: biochemical; set-up: key: ‘—’ = Not active; conditions: unit not given; kDNA substrate; compound at 1, 10, 25 and 50 μM in protocol
Topoisomerase IIα, sequence (P11388 whole entry): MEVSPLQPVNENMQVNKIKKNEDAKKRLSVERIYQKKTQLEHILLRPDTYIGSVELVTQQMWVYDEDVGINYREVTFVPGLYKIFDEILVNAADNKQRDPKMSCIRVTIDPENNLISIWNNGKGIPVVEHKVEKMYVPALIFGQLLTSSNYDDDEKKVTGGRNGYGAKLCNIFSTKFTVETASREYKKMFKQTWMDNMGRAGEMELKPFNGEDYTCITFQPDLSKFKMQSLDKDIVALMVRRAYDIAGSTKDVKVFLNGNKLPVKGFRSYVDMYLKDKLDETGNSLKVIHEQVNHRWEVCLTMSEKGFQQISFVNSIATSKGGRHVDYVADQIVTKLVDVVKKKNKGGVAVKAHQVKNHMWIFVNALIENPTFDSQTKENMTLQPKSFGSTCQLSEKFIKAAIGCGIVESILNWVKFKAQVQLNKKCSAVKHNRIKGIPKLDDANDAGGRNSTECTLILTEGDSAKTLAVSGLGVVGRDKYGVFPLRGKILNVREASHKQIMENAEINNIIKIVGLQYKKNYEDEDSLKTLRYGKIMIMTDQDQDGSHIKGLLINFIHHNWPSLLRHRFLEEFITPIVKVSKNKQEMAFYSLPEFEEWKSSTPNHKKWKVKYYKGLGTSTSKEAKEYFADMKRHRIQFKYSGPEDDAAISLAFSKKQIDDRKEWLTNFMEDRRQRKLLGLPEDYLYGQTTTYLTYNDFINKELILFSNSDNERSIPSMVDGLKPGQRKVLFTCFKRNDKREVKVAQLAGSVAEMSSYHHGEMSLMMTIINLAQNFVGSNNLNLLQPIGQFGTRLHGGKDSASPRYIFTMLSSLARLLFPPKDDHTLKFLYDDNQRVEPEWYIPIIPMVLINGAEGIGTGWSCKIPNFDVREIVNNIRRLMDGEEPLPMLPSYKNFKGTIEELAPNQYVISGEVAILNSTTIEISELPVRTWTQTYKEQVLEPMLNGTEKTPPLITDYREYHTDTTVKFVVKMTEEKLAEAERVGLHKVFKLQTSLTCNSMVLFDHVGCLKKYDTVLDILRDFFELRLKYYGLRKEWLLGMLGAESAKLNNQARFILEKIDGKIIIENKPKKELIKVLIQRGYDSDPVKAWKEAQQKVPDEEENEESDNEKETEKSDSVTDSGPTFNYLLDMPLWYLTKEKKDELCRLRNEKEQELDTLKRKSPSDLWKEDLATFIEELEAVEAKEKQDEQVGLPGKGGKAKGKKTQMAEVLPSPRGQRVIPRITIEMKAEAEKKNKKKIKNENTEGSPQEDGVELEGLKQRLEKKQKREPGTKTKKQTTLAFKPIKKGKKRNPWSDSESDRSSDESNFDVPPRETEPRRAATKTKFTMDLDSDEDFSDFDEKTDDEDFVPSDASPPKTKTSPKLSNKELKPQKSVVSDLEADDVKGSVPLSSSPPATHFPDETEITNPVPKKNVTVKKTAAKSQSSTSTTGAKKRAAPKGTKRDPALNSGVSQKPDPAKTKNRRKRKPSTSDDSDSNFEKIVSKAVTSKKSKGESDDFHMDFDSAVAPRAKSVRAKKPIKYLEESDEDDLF
Description: Topisomerase Decatenation Assay.
This method uses catenated DNA substrate prepared from the kinetoplast of the insect trypanosome Crithidia fasciculata. Upon incubation with topo II, which engages DNA in a double stranded breakage-reunion cycle, DNA minicircles are released. Addition of topo-inhibiting drugs may prevent decatenation.
Topo II Decatenation Assay Protocol
This assay is the same as the Topo II Relaxation assay except that the pBR 322 Plasmid DNA is replaced with kDNA.
Results are included in Table 3 below

Compound	nicked DNA (Topoisomerase I; at 100 μM)	TopI Cleave (Topoisomerase I)	TopIIα Decat. (Topoisomerase IIα)
C[C@H](N)C(=O)OCCCCNc1cccc2c1C(=O)c1ccccc1C2=O.O=C(O)C(F)(F)F [Example 43, 1-[4-(L-alanyloxy)butylamino]anthracene-9,10-dione trifluoroacetate]	20%	100	—
C[C@@H](N)C(=O)OCCCCNc1cccc2c1C(=O)c1ccccc1C2=O.O=C(O)C(F)(F)F [Example 45, 1-[4-(D-alanyloxy)butylamino]anthracene-9,10-dione trifluoroacetate]		300	—

— patent publication US20030203975A1, “Anti-cancer agents” (priority 1998, published 2003)
